These results are taken from patent publication US20250134895A1, “METHODS AND COMPOSITIONS FOR TREATING ALPHA-SYNUCLEIN-MEDIATED NEURODEGENERATION” (UNIVERSITY HEALTH NETWORK, priority 2021, published 2025).

In experiment [1] the test system is HSP70 mRNA. The experiment in a line: Real-time quantitative RT-PCR of HSP70 mRNA in rat primary cortical neurons. The experiment is classed as cell-based. To be noted: 10 μM. As to the method: FIG. 18. […] Real-time quantitative RT-PCR was performed with 3 distinct primer sets for HSP70. β-Actin was used as the reference gene and the expression of HSP70 mRNA was analyzed by 2^−ΔΔCT method. The control group treated with DMSO was set as calibrator sample representing the 1×expression. Data are presented as mean±SEM. (n=3 independent experiments, unpaired two-tailed Student's t-test, ** p<0.01)
To investigate the mechanism underlying these drug effects, experiments were directed towards the potential involvement of molecular chaperone HSP70. […] To investigate the in silico predictions of HSP70 interactions with top drug candidates from the Cyclica proteome screening, fluorescence intensity was measured in V1 S-SV2 primary cortical rat neurons (FIGS. 15A and E) for potential effects on α-synuclein oligomers.
Total RNA was isolated from the cultured neurons on DIV 5 using RNeasy Mini Kit (50) (Qiagen, Cat #74104) according to the manufacturer's instructions. RNA quantity and purity were determined by spectrophotometric analysis (NanoDrop 2000c; Thermo Scientific). […] Quantitative real-time PCR was performed in the Quant Studio™ 5 Real-Time PCR System (ThermoFisher Scientific) using Power Track™ SYBR Green Master Mix (Invitrogen, Cat #A46109). […]

The subject of experiment [2] is HSP70. Kind of experiment: HSP70 immunofluorescence in V1S-SV2 primary cortical rat neurons. The format is cell-based. To be noted: 10 μM. As for the experimental part:
To investigate the mechanism underlying these drug effects, experiments were directed towards the potential involvement of molecular chaperone HSP70. HSP70 is known to play an essential role in suppressing α-synuclein aggregation, and in particular the inhibition of α-synuclein oligomer formation (Tao et al., 2020). To investigate the in silico predictions of HSP70 interactions with top drug candidates from the Cyclica proteome screening, fluorescence intensity was measured in V1 S-SV2 primary cortical rat neurons (FIGS. 15A and E) for potential effects on α-synuclein oligomers.
Pregnant Sprague Dawley rats (E17) were purchased from Charles River. […] Cells were washed three more times before being counter-stained with DAPI for 5 mins and mounted using ProLong Gold mounting medium for fluorescence (ThermoFisher). […] Fluorescence intensity was analysed automatically using Imaris imaging software (Oxford Instruments) by measuring the mean fluorescence intensity of each individual fluorescent neuron using the “surfaces” module. This module detects fluorescence above background threshold in each field of view, identifies a cell body and neuronal projections of each cell, and calculates the mean fluorescence intensity of each fluorescent cell within the field of view. […] The value generated for each neuron was normalized to the mean of fluorescence intensity of neurons treated with vehicle alone. […]

For the compound `Nc1nc(NC2CC2)c2ncn([C@H]3C=C[C@@H](CO)C3)c2n1` [Abacavir, abacavir], the “HSP70 mRNA levels compared with vehicle control” value in experiment [1] was “increased”. For the same compound, in experiment [2], the “HSP70 fluorescence compared to vehicle control” value was “significantly increased”.
